Data from patent US12678480B2, “Polypeptide applied to inhibition of intracellular lipid accumulation and synthesis method thereof” (NATIONAL CHENG KUNG UNIVERSITY, priority 2021, dated 2026).
Ends that are not written are not given here.

Key:
[1] = system: human hepatocarcinoma cells (Huh7); settings: Huh7, 400 μM oleic acid, peptide 10 μM, 20 μM; FIGS. 3A-3B
[2] = system: human hepatocarcinoma cells (Huh7); test: fluorescence staining of lipid droplets in hepatocytes treated with the polypeptide; assay type: cell-based; settings: Huh7, 400 μM oleic acid, peptide 10 μM, 20 μM; FIG. 4

## MEPGGARLRLQRTEGLGGERERQPCGDGNTETHRAPDLVQWYGRKKRRQRRRK-OH [polypeptide]
[1]
  level of total cholesterol (TC) in hepatocytes: can reduce
  level of triglyceride (TG) in hepatocytes: can reduce
[2]
  generation of intracellular lipid droplets (LD): can inhibit
